Patent publication US20250282818A1, “SYRBACTIN MACROLACTAMS AND UNNATURAL ANALOGS AS PROTEASOME INHIBITORS FOR THE TREATMENT OF MULTIPLE MYELOMA AND CHEMOENZYMATIC SYNTHESIS THEREOF” (UNIVERSITY OF FLORIDA RESEARCH FOUNDATION,INCORPORATED, priority 2022, published 2025)
Entries after “also recorded” stand apart in the source; their conditions may differ.

Tests used:
[1] = system: human MM (RPMI8226, U266, H929) and MCL (JeKo-1, HBL2, Mino) cell lines; assay: MM and MCL cytotoxicity EC50 measurements, cell line panel; assay type: cell-based; settings: 3 MM and 3 MCL cell lines, 48 hours
Method: (§1) Finally, we sought to compare the new lead analog (50) against the clinical drug bortezomib. It has been shown that in addition to MM, mantle cell lymphoma (MCL) is also sensitive to proteasome inhibition. Indeed, bortezomib itself is FDA-approved for the treatment of MCL.^23 Therefore, we compared 50 and bortezomib in 3 different cell lines of both MM and MCL (FIG. 6E, FIG. 7).
(§2) Cells were seeded in a 96-well plate (20,000 cells/well) in cell culture media supplemented with indicated compounds (1,000× stock in DMSO) or DMSO and cultured for 48 hours. Toxicity was determined using the WST-1 assay (Roche) according to the protocol of the manufacturer. (n=3)

[2] = system: upregulated protein expression; assay: Global proteomics experiments; assay type: cell-based, human
proteasome subunit β5 = target: T1, proteasome subunit β5 (Homo sapiens, UniProt P28074); assay: Proteasome inhibition IC50 measurements in RPMI 8226 cells, substrate Suc-LLVY-AMC (β5); assay type: cell-based
T1 construct: Cells were then collected and lysed; endogenous in cells; host or cells: RPMI 8226
Text: Our preliminary series of analogs (FIG. 3), including the natural product glidobactin A (2), were synthesized by largely the same route (FIG. 2).^13 Desoxycepafungin (38) was synthesized from Boc-Lys(Boc)-OH to assess the role of the macrocycle hydroxylation in 1 towards proteasome inhibition. The saturated cepafungin analog 39 was designed to address the possible role of rigidity in the tail fragment induced by the diene seen in many natural cepafungins and glidobactins. An analog bearing unsaturation at its macrocyclic lysine was envisioned to provide a head-to-head comparison between the cepafungin and syringolin A (4) macrocyclic core. […] Proteasome subunit β5 IC50 values were determined in situ in RPMI 8226 cells (FIG. 3). In close agreement with prior measurement of β5 IC50 for natural 1 and 2 in purified yeast proteasome,^8 in our hands the additional branching methyl in 1 indeed leads to ca. 5-fold improved IC50 compared to 2 in RPMI 8226 cells. […] Likewise, saturation of the fatty acid fragment in 39 causes ca. 14-fold decrease in β5 inhibition. This preliminary series of analogs highlighted that the macrocyclic hydroxylation, fatty acid unsaturation, and terminal lipid functionality are critical for potent proteasome inhibitory activity.
(§3) Cellular assays were performed with human multiple myeloma cell line RPMI 8226. First, relative inhibition of proteasome subunits β5 and β2 for all analogs and the natural product was measured at 30 nM compound concentration. Following incubation of the analogs in cell culture for 6 hours, cells were lysed and fluorogenic subunit-specific peptide substrates Suc-LLVY-AMC (β5) or Ac-RLR-AMC (β2) were incubated with the lysates, and fluorescence readings provided relative proteasome activity levels with respect to DMSO (FIG. 6A). Next, cytotoxicity screening was performed at 30 nM and 100 nM concentrations for better coverage of dynamic range (FIG. 6B). […] Therefore, the improved cytotoxicity of phenyl cepafungin 50 likely results from a more pronounced loss of β5 function in RPMI 8226 cells. This drastic increase in proteasome inhibition may be due to pi-stacking of the lipid tail phenyl ring with the β6 subunit residues Tyr106 and/or Tyr5. The β2 subunit-bound natural product has residues Tyr102 and Phe103 on the adjacent β3 subunit oriented further away from the terminal lipid methyl groups, and presumably would not facilitate pi-stacking to the extent possible at the adjacent β6 subunit (see FIG. 4, FIG. 9). […]
(§4) RPMI 8226 cells were seeded in a 6-well plate (1,000,000 cells/well) in cell culture media supplemented with indicated compounds (1,000× stock in DMSO) or DMSO and cultured for 6 hours. […] The plates were incubated at 37° C. for one hour and fluorescence was read at A360ex/A460em. […]

20S proteasome = target: T2, 20S proteasome (Homo sapiens, UniProt P28074+Q99436); assay: In-gel competitive profiling and in situ competitive LC-MS/MS based chemoproteomics; assay type: cell-based; settings: human MM cells, alkyne-tagged probe analog
T2 construct: endogenous in cells
T2 sequence (P28074 60-263): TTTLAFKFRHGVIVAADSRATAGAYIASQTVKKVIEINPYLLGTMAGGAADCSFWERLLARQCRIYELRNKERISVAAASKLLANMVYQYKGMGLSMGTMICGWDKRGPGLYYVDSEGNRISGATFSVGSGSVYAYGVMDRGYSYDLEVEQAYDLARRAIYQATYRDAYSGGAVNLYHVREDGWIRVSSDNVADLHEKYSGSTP
T2 sequence (Q99436 44-277): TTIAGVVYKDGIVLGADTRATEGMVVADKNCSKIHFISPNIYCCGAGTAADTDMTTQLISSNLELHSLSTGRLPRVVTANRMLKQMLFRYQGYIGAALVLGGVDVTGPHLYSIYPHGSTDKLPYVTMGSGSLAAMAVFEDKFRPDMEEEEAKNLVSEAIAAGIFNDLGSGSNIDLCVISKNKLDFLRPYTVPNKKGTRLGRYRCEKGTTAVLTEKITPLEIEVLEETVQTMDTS
Text: Prior to our work, a major knowledge gap in the bioactivity of cepafungin was its engagement of the proteasome in human MM cells and selectivity in targeting the proteasome over a multitude of other proteases. To address this, an alkyne-tagged probe analog was synthesized by our chemoenzymatic route and used for classical chemoproteomics studies.

[3] = target: β5 subunit of purified yeast proteasome (Saccharomyces cerevisiae, UniProt P23724+P30656); settings: literature ref. 8; cited from earlier work
β2 and β5 subunits = settings: introduction, no test specified; cited from earlier work
proteasome subunit β2 = assay: Proteasome inhibition IC50 measurements in RPMI 8226 cells, substrate Ac-RLR-AMC (β2); assay type: cell-based, human; settings: 6 hours
Method: as §3, with “Tyr5.” for “Tyr5. The β2 subunit-bound natural product has residues Tyr102 and Phe103 on the adjacent β3 subunit oriented further away from the terminal lipid methyl groups, and presumably would not facilitate pi-stacking to the extent possible at the adjacent β6 subunit (see FIG. 4, FIG. 9).”
as §4

RPMI 8226 cells [4] = assay: RPMI 8226 cytotoxicity EC50 measurements (WST-1); assay type: cell-based, human
Method: (§5) RPMI 8226 cells were seeded in a 96-well plate (20,000 cells/well) in cell culture media supplemented with indicated compounds (1,000× stock in DMSO) or DMSO and cultured for 48 hours. Toxicity was determined using the WST-1 assay (Roche) according to the protocol of the manufacturer. (n=3)
as §5, with “Cytotoxicity of phenyl cepafungin (50) and hybrid analog (S39) in RPMI 8226 RPMI” for “RPMI”

RPMI 8226 cells [5] = assay: RPMI8226 cytotoxicity screening (WST-1); assay type: cell-based, human; settings: 30 nM and 100 nM, cytotoxicities track with proteasome inhibition at 30 nM
Method: Cellular assays were performed with human multiple myeloma cell line RPMI 8226. First, relative inhibition of proteasome subunits β5 and β2 for all analogs and the natural product was measured at 30 nM compound concentration. Following incubation of the analogs in cell culture for 6 hours, cells were lysed and fluorogenic subunit-specific peptide substrates Suc-LLVY-AMC (β5) or Ac-RLR-AMC (β2) were incubated with the lysates, and fluorescence readings provided relative proteasome activity levels with respect to DMSO (FIG. 6A). Next, cytotoxicity screening was performed at 30 nM and 100 nM concentrations for better coverage of dynamic range (FIG. 6B). […] Therefore, the improved cytotoxicity of phenyl cepafungin 50 likely results from a more pronounced loss of β5 function in RPMI 8226 cells. This drastic increase in proteasome inhibition may be due to pi-stacking of the lipid tail phenyl ring with the β6 subunit residues Tyr106 and/or Tyr5. The β2 subunit-bound natural product has residues Tyr102 and Phe103 on the adjacent β3 subunit oriented further away from the terminal lipid methyl groups, and presumably would not facilitate pi-stacking to the extent possible at the adjacent β6 subunit (see FIG. 4, FIG. 9). […] These combined modifications were made in hopes that the effects of both substitutions would be additive.
[…] Toxicity was determined using the WST-1 assay (Roche) according to the protocol of the manufacturer. (n=3)

U266 = assay: MM and MCL cytotoxicity EC50 measurements, U266; assay type: cell-based; settings: Homo sapiens, U-266; U266, 48 hours, WST-1
Method: as §1, §2

SMILES	cytotoxicity compared with bortezomib, in words [1]	overlap in upregulated protein expression between 1 and bortezomib [2]	fold improved β5 IC50 of 1 compared to 2 (proteasome subunit β5; in situ in RPMI 8226 cells)	fold improved β5 inhibition of 1 compared to desoxy-cepafungin analog 38 (proteasome subunit β5; in situ in RPMI 8226 cells)	selectivity of proteasome engagement, in words (20S proteasome)	selectivity of proteasome engagement, in words (20S proteasome; listed as cepafungin)	fold improvement of β5-subunit inhibition compared to glidobactin A (2) [3]	proteasome inhibitory activity, in words (β2 and β5 subunits)	fold lower β5 IC50 than 1 / fold greater β5 inhibitory activity (proteasome subunit β5; RPMI 8226 cells, 6 hours)	β2 subunit IC50 compared with 1, in words (proteasome subunit β2)	EC50 (RPMI 8226 cells [4]; Homo sapiens, RPMI 8226, 48 hours, WST-1)	fold greater cytotoxicity than parent cepafungin I 1 (RPMI 8226 cells [4]; RPMI 8226, EC50 comparison)	potency compared with parent natural product 1 in screening (FIG. 6A, 6B) (RPMI 8226 cells [5])	EC50 (U266)
CC(C)C[C@H](NC(=O)[C@H](Cc1ccccc1)NC(=O)c1cnccn1)B(O)O [bortezomib, reference compound]	low-nanomolar cytotoxicity	high degree of overlap in upregulated protein expression	–	–	–	–	–	–	–	–	–	–	–	–
CC(C)CCCCC/C=C/C=C\C(=O)N[C@H](C(=O)N[C@H]1C[C@H](O)CCNC(=O)/C=C\[C@H](C)NC1=O)[C@@H](C)O [compound 1, cepafungin I]	–	high degree of overlap in upregulated protein expression	ca. 5 fold	ca. 11 fold	exceptional selectivity	exceptional selectivity towards several proteasome subunits	ca. 5 fold	most potent proteasome inhibitor among the syrbactins; also recorded: low nanomolar inhibitory activity	–	–	–	–	–	–
C[C@H]1/C=C/C(=O)NCC[C@H](O)C[C@H](NC(=O)[C@@H](NC(=O)/C=C/C=C/CCCCCc2ccccc2)[C@@H](C)O)C(=O)N1 [compound 50, (2E,4E)-N-((2S,3R)-3-hydroxy-1-(((5S,8S,10S,E)-10-hydroxy-5-methyl-2,7-dioxo-1,6-diazacyclododec-3-en-8-yl)amino)-1-oxobutan-2-yl)-10-phenyldeca-2,4-dienamide]	similarly low-nanomolar cytotoxicity in all cell lines as bortezomib except for U266	–	–	–	–	–	–	–	7 fold	roughly similar IC50	0.003 µM	4-5 fold	more potent than the parent natural product 1; also recorded: most potent	~0.02 µM
